Measured values published in publication PMC6934184, “Selective DNA-PKcs inhibition extends the therapeutic index of localized radiotherapy and chemotherapy” (The Journal of Clinical Investigation, 2019).

Target: T1, MAPK14 (p38 alpha) (Homo sapiens, UniProt Q16539)
T1 construct: purchased Thermo Fisher Scientific (Life Technologies) SelectScreen
Experiment: SelectScreen Z'LYTE
Type: biochemical
In short: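 Percent values come from Thermo SelectScreen profiling of NU5455, combining activity and binding assays. CSF1R was run in Z'LYTE format at Km app ATP, and CAMK1 in Adapta format with ATP listed at 10.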

T1 sequence (Q16539 whole entry): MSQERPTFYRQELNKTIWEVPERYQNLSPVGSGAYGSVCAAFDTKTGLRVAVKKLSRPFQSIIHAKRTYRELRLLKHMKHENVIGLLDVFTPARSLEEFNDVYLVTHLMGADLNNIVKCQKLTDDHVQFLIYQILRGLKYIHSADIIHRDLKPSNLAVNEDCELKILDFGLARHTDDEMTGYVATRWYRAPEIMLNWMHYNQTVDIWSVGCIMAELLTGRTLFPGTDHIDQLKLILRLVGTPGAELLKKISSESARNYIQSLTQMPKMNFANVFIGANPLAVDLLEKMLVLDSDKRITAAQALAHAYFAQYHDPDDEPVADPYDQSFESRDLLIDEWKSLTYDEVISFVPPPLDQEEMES

Structure (SMILES): CN(C(=O)CN1CCOCC1)c1ccc2sc3c(-c4cccc5c(=O)cc(N6CC7CCC(C6)O7)oc45)cccc3c2c1 [NU5455]
- inhibition at 1 µM: 9.7%
